The record followed here is patent US9096615B2, “Bridged bicyclic amino thiazine dioxide compounds as inhibitors of beta-secretase and methods of use thereof” (AMGEN INC., priority 2013, dated 2015).

The target in one experiment is T1, Cathepsin D (Cat D) (Homo sapiens, UniProt P07339).
T1 construct: made in house; host or cells: CHO cells
Kind of experiment: In vitro enzymatic Cathepsin D (Cat D) FRET assay. Particulars: average IC50; first procedure; read-out: CatD IC50. Type of experiment: biochemical. The method in brief: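 Recombinant human Cat D expressed in CHO cells, 9 nM, pre-incubated 1 h with inhibitor in 0.05 M citrate pH 3.5, 10% DMSO, 5 mM CHAPS. Reaction started with 20 nM FRET peptide substrate, run 1 h, stopped with Tris to neutral pH; fluorescence read at ex 500/em 580 nm.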

The test system of experiment [1] is Aβ40 in conditioned medium of cells stably expressing Amyloid Precursor Protein (APP). Nature of the experiment: In vitro BACE cell-based assay (HEK cell assay, Aβ40 sandwich ELISA). As to conditions: Homo sapiens, HEK293; average IC50; read-out: BACE1 cell assay IC50. The method in brief: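 APP-stable cells were cultured 24 h at 37 °C, then given compound as 10-point dose-response (top 100 μM or 10 μM; 0.1% DMSO final) for 24 h. Aβ40 in conditioned medium was measured by sandwich ELISA (pAb40 capture, biotinylated 6E10 detection, Eu time-resolved fluorescence). IC50 from percent inhibition versus concentration.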
On the technique in general: An ELISA detects its analyte on a solid surface through an enzyme-linked reagent.

The next experiment deals with BACE1 (Homo sapiens, UniProt P56817). Kind of experiment: In vitro enzymatic BACE FRET assay. Type of experiment: biochemical. Particulars: average IC50; read-out: BACE1 Enzyme assay IC50. The method, boiled down: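 BACE (0.2 nM) pre-incubated 1 h with serially diluted inhibitor in 0.05 M acetate pH 4.2, 10% DMSO, 100 uM genapol; 50 nM FRET peptide substrate added, 1 h incubation. Stopped with Tris to neutral pH; fluorescence read (ex 488, […]).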

The target in another experiment is T2, human Bace2 protein (Homo sapiens, UniProt Q9Y5Z0).
T2 construct: V5 (C); 6-His (C)
T2 sequence (Q9Y5Z0 63-518): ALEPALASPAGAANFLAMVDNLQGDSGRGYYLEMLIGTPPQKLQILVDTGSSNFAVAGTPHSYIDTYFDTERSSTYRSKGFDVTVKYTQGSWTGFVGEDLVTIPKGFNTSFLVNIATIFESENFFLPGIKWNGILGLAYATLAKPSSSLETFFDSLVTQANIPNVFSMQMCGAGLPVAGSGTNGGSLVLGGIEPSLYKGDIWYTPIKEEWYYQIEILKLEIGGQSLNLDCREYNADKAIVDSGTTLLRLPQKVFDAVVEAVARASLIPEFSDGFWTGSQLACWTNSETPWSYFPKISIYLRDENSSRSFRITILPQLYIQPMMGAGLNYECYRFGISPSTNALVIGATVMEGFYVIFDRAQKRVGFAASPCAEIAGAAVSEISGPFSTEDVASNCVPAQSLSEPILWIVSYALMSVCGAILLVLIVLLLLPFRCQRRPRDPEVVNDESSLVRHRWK
Kind of experiment: In vitro enzymatic BACE2 FRET assay. As to conditions: average IC50; read-out: BACE2 Enzyme assay IC50. Type of experiment: biochemical. How it is done:
In Vitro Enzymatic BACE2 FRET (Fluorescence Resonance Energy Transfer) Assay
Enzyme Assay Data in the Table 3
The assay buffer used in this screen is 0.05 M acetate, pH 4.2, 10% DMSO final, 100 uM genapol (which is a nonionic detergent, below its Critical Micelle Concentration). The Beta Secretase2 enzyme (human Bace2 protein with C-terminal V5 and 6-His tag; 0.2 nM) is pre-incubated for one hour with inhibitors, typically in about 1 uL of DMSO according to a serial dilution, are added thereto. This assay is effectively started by the addition of FRET substrate (50 nM) and the combination is incubated for one hour. Final assay concentration of about 0.64 nM. The FRET assay is terminated with by addition of Tris buffer, which raises the pH to neutrality, and the fluorescence is determined. The FRET substrate is a peptide with commercially available fluorophore and quencher, on opposite sides of the BACE cleavage site. Proteolytic cleavage of the FRET substrate releases quenching of fluorescence (excitation 488 nm and […]).

Another experiment deals with Abeta 40. Nature of the experiment: In vivo inhibition of beta-secretase: percent Abeta 40 reduction in CSF and brain. Also noted: species or system rat. Particulars: 10 mpk, after 4 hrs. The text has this: In Vivo Inhibition of Beta-Secretase
Several animal models, including mouse, rat, dog, and monkey, may be used to screen for inhibition of beta-secretase activity in vivo following administration of a test compound sample. Animals used in this invention can be wild type, transgenic, or gene knockout animals. For example, the Tg2576 mouse model, prepared and conducted as described in Hsiao et al., 1996, Science 274, 99-102, and other non-transgenic or gene knockout animals are useful to analyze in vivo inhibition of Amyloid beta peptide (Abeta) production in the presence of inhibitory test compounds. Generally, 2 to 18 month old Tg2576 mice, gene knockout mice or non-transgenic animals are administered test compounds formulated in vehicles, such as cyclodextran, phosphate buffers, hydroxypropyl methylcellulose or other suitable vehicles. One to twenty-four hours following the administration of compound, animals are sacrificed, and brains as well as cerebrospinal fluid (CSF) and plasma are removed for analysis of A-beta levels and drug or test compound concentrations (Dovey et al., 2001, Journal of Neurochemistry, 76, 173-181) Beginning at time 0, animals are administered by oral gavage, or other means of delivery such as intravenous injection, an inhibitory test compound of up to 100 mg/kg in a standard, conventional formulation, such as 2% hydroxypropyl methylcellulose, 1% Tween80. A separate group of animals receive 2% hydroxypropyl methylcellulose, 1% Tween80 alone, containing no test compound, and serve as a vehicle-control group. At the end of the test period, animals are sacrificed and brain tissues, plasma or cerebrospinal fluid are collected. Brains are either homogenized in 10 volumes (w/v) of 0.2% diethylamine (DEA) in 50 mM NaCl (Best et al., 2005, Journal of Pharmacology and Experimental Therapeutics, 313, 902-908), or in 10 volumes of 0.5% TritonX-100 in Tris-buffered saline (pH at about 7.6). Homogenates are centrifuged at 355,000 g, 4° C. for 30 minutes. CSF or brain supernatants are then analyzed for the presence of A-beta peptide by specific sandwich ELISA assays based on ECL (Electrochemiluminescence) technology. For example, rat Abeta40 is measured using biotinylated-4G8 (Signet) as a capture antibody and Fab40 (an in-house antibody specific to the C-terminal of Abeta40) as a detection antibody. For example, 4 hours after administration of 30 mg/kg oral dose of the test compound in 2% hydroxypropyl methylcellulose, 1% Tween80 (pH2.2) to 200 g male Sprague Dawley rats, amyloid beta peptide levels are measured for reduction by X % and Y % in cerebrospinal fluid and brain, respectively, when compared to the levels measured in the vehicle-treated or control […].
Actual vehicles used: Oral: 2% HPMC, 1% Tween80, pH 2.2
• IV: 5% EtOH, 45% Propylene glycol in 5% Dextrose
The compounds of the invention may be shown to reduce the formation and/or deposition of amyloid beta peptide in the cerebrospinal fluid (CSF) as well as in the brain of a mouse or rat at either 3 mpk, 10 mpk or 30 mpk (mpk=mg compound per kg weight of the animal) dosing concentrations after 4 hrs.

The mark [2] stands for this setting: Abeta 40, rat CSF, read-out: % reduction of rat CSF levels at 10 pmk.
Setting [3] is: Abeta 40, rat brain, read-out: % reduction of rat brain levels at 10 mpk.

Like-named read-outs stand apart in the source and are kept apart here.

T1 sequence (P07339 65-412, species assumed): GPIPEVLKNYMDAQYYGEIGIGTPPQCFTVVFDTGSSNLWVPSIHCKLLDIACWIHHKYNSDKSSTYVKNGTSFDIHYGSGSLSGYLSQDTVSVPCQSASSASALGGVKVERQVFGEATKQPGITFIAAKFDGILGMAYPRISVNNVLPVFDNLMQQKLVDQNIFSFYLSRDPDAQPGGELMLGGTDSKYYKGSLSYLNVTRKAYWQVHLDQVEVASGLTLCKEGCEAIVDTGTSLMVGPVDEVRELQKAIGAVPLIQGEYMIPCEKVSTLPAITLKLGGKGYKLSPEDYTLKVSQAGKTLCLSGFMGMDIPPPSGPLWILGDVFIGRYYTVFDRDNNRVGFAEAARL
Chain of BACE1 (P56817 46-501, species assumed): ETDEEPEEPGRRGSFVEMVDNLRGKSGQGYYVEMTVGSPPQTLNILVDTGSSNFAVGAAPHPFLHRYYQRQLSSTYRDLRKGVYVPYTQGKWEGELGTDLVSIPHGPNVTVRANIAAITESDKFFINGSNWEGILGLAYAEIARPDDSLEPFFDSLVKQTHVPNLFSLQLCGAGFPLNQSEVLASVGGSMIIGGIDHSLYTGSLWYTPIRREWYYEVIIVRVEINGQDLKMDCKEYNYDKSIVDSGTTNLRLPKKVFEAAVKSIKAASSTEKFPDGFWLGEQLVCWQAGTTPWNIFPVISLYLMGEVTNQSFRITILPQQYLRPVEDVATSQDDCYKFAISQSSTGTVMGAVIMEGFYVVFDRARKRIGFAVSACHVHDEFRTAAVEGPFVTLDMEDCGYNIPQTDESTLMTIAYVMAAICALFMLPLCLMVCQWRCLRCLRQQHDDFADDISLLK

A word on the IC50: it is the midpoint of a concentration-inhibition curve. Regarding `CC#CCOc1cnc(C(=O)Nc2ccc(F)c([C@@]3(C)N=C(N)[C@]4(C)CC[C@H]3S4(=O)=O)c2)cn1` [Example 83, N-(3-((1R,2R,5S)-4-amino-2,5-dimethyl-8,8-dioxido-8-thia-3-azabicyclo[3.2.1]oct-3-en-2-yl)-4-fluorophenyl)-5-(2-butyn-1-yloxy)-2-pyrazinecarboxamide], the IC50 at Cathepsin D (Cat D) worked out at 1100 µM; in experiment [1] it was 0.0005 µM; at BACE1 it was 0.001 µM; on human Bace2 protein, 0.082 µM.
As for `C[C@]1(c2cc(Nc3ncnc4cc(Br)cnc34)ccc2F)N=C(N)[C@@]2(CF)CC[C@@H]1S2(=O)=O` [Example 47, N-(3-((1S,2R,5R)-4-amino-5-(fluoromethyl)-2-methyl-8,8-dioxido-8-thia-3-azabicyclo[3.2.1]oct-3-en-2-yl)-4-fluorophenyl)-7-bromopyrido[3,2-d]pyrimidin-4-amine], the IC50 stood at 174 µM on Cathepsin D (Cat D), 0.036 µM in experiment [1], 0.007 µM on BACE1 and 0.002 µM at human Bace2 protein.
For the compound `CC#CCOc1ccc(C(=O)Nc2ccc(F)c([C@@]3(C)N=C(N)[C@]4(C)CC[C@H]3S4(=O)=O)c2)c(F)c1` [Example 129, N-(3-((1R,2R,5S)-4-amino-2,5-dimethyl-8,8-dioxido-8-thia-3-azabicyclo[3.2.1]oct-3-en-2-yl)-4-fluorophenyl)-4-(2-butyn-1-yloxy)-2-fluorobenzamide], the IC50 was found to be 348 µM at Cathepsin D (Cat D), 0.044 µM in experiment [1], 0.061 µM at BACE1 and 7 µM at human Bace2 protein.
For the compound `CC#C[C@H](C)Oc1cnc(C(=O)Nc2ccc(F)c([C@@]3(C)N=C(N)[C@@]4(C)CC[C@@H]3S4(=O)=O)c2)cn1` [Example 71, N-(3-((1S,2R,5R)-4-amino-2,5-dimethyl-8,8-dioxido-8-thia-3-azabicyclo[3.2.1]oct-3-en-2-yl)-4-fluorophenyl)-5-(((1S)-1-methyl-2-butyn-1-yl)oxy)-2-pyrazinecarboxamide], the IC50 on Cathepsin D (Cat D) was above 400 µM; in experiment [1], 0.0001 µM; at BACE1 it was 0.003 µM; at human Bace2 protein, 0.008 µM.
With `C[C@]1(c2cc(NC(=O)c3ncc(Cl)cc3Cl)ccc2F)N=C(N)[C@@]2(CF)CC[C@@H]1S2(=O)=O` [Example 105, N-(3-((1S,2R,5R)-4-amino-5-(fluoromethyl)-2-methyl-8,8-dioxido-8-thia-3-azabicyclo[3.2.1]oct-3-en-2-yl)-4-fluorophenyl)-3,5-dichloro-2-pyridinecarboxamide], the figures for the IC50 (on Cathepsin D (Cat D); in experiment [1]; at BACE1) were 926 µM, 0.004 µM and 0.002 µM, respectively. For the same compound, the inhibition in vivo at 10 mg/kg in the experiment on Abeta 40 (setting [2]) was 74%; with Abeta 40 (setting [3]) it was 71%.
Regarding `Cc1cc(C(F)(F)F)cnc1C(=O)Nc1ccc(F)c([C@@]2(C)N=C(N)[C@@]3(CF)CC[C@@H]2S3(=O)=O)c1` [Example 92, N-(3-((1S,2R,5R)-4-amino-5-(fluoromethyl)-2-methyl-8,8-dioxido-8-thia-3-azabicyclo[3.2.1]oct-3-en-2-yl)-4-fluorophenyl)-3-methyl-5-(trifluoromethyl)-2-pyridinecarboxamide], the IC50 on Cathepsin D (Cat D) was 789 µM; in experiment [1], 0.005 µM; at BACE1, 0.004 µM. For the same compound, the inhibition in vivo at 10 mg/kg was determined as 73% in the experiment on Abeta 40 (setting [2]) and 67% in the experiment with Abeta 40 (setting [3]).
Taken in the same sequence, the figures for `Cc1cnc(COc2cnc3c(Nc4ccc(F)c([C@@]5(C)N=C(N)[C@@]6(C)CC[C@@H]5S6(=O)=O)c4)nccc3n2)o1` [Example 146, N-(3-((1S,2R,5R)-4-amino-2,5-dimethyl-8,8-dioxido-8-thia-3-azabicyclo[3.2.1]oct-3-en-2-yl)-4-fluorophenyl)-2-((5-methyl-1,3-oxazol-2-yl)methoxy)pyrido[3,4-b]pyrazin-5-amine] were 417 µM, 0.001 µM, 0.001 µM, 35% and 13%.
With `C[C@]1(c2cc(Nc3ncnc4cc(C(F)(F)F)cnc34)ccc2F)N=C(N)[C@@]2(CF)CC[C@@H]1S2(=O)=O` [Example 107, N-(3-((1S,2R,5R)-4-amino-5-(fluoromethyl)-2-methyl-8,8-dioxido-8-thia-3-azabicyclo[3.2.1]oct-3-en-2-yl)-4-fluorophenyl)-7-(trifluoromethyl)pyrido[3,2-d]pyrimidin-4-amine], the figures for the IC50 (on Cathepsin D (Cat D); in experiment [1]; on BACE1) were 185 µM, 0.018 µM and 0.01 µM, respectively. The inhibition in vivo at 10 mg/kg in the experiment on Abeta 40 (setting [2]) was 53%; in the experiment with Abeta 40 (setting [3]) it was 43%.
On to `Cc1cc(C(F)F)cnc1C(=O)Nc1ccc(F)c([C@@]2(C)N=C(N)[C@@]3(CF)CC[C@@H]2S3(=O)=O)c1` [Example 103, N-(3-((1S,2R,5R)-4-amino-5-(fluoromethyl)-2-methyl-8,8-dioxido-8-thia-3-azabicyclo[3.2.1]oct-3-en-2-yl)-4-fluorophenyl)-5-(difluoromethyl)-3-methyl-2-pyridinecarboxamide], for which the figures for the 50% inhibitory concentration (IC50) (at Cathepsin D (Cat D); in experiment [1]; at BACE1) were 891 µM, 0.007 µM and 0.009 µM, respectively. The inhibition in vivo at 10 mg/kg in the experiment on Abeta 40 (setting [2]) is 62%; in the experiment with Abeta 40 (setting [3]), 58%.
